# Results as given in ChEMBL document CHEMBL1201862, “PubChem BioAssay data set” (2004).
# The source made the active and inactive calls.
# Tests used:
# [1] = target: Acyl-homoserine lactone acylase PvdQ (Pseudomonas aeruginosa (strain LESB58), UniProt Q9I194); assay: P. aeruginosa PvdQ acylase inhibitors, dose response, biochemical, fluorescence, plate reader and imaging, cherry-picks (AID 493231)
# [2] = target: T1, Heat shock 70 kDa protein 1A (Homo sapiens, UniProt P0DMV8); assay: Hsp70 inhibitors, biochemical, TR-FRET (AID 786)
# [3] = target: T2, Bcl-2-related protein A1 (Mus musculus, UniProt Q07440); assay: Bfl-1 inhibitors, primary screen, biochemical, fluorescence polarization, FITC-Bid, mouse (AID 432)
# T2 sequence (Q07440 whole entry): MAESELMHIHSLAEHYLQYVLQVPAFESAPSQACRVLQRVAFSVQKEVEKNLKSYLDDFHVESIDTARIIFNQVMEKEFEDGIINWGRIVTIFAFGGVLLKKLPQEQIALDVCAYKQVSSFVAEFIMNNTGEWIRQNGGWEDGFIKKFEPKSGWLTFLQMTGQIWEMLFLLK
# [4] = target: T1, Heat shock 70 kDa protein 1A; assay: Hsp70 inhibitors, probe displacement, primary screen, biochemical, fluorescence polarization (AID 583)
# [5] = target: T2, Bcl-2-related protein A1; assay: Bfl-1 inhibitors blocking BH3 peptide binding, confirmation, biochemical, TR-FRET, mouse Bfl-1 (AID 621);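 note: TR-FRET binding of GST-Bfl-1 to FITC-labelled Bid peptide via terbium antibody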
# [6] = target: Mothers against decapentaplegic homolog 3 (Homo sapiens, UniProt P84022); assay: SMAD3 transcription factor inhibitors, dose response (AID 715); assay type: functional
# [7] = target: Estrogen receptor beta (Homo sapiens, UniProt Q92731); assay: ERβ–SRC-3 coactivator interaction inhibitors, confirmation, orthogonal assay, biochemical, ELISA, streptavidin-HRP readout (AID 1060)
# [8] = target: T3, Bcl-2-like protein 10 (Homo sapiens, UniProt Q9HD36); assay: displacers of TR3 peptide from Bcl-B, primary screen, selectivity assay for Bfl-1 inhibitor project, biochemical, fluorescence polarization, FITC-TR3 peptide (AID 748);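 note: fluorescence polarization from a fluorescein-labelled TR3 peptide binding purified Bcl-B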
# T3 sequence (Q9HD36 whole entry): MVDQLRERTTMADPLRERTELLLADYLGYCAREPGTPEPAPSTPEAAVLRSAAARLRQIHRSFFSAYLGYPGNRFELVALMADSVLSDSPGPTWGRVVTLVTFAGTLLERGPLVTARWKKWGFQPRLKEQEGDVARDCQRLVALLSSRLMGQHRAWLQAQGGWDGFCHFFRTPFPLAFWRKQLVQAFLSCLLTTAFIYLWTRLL
# [9] = target: T4, Estrogen receptor (Homo sapiens, UniProt P03372); assay: ERα–SRC-3 coactivator interaction inhibitors, confirmation, orthogonal assay, biochemical, ELISA, streptavidin-HRP readout (AID 1079)
# T4 sequence (P03372 whole entry): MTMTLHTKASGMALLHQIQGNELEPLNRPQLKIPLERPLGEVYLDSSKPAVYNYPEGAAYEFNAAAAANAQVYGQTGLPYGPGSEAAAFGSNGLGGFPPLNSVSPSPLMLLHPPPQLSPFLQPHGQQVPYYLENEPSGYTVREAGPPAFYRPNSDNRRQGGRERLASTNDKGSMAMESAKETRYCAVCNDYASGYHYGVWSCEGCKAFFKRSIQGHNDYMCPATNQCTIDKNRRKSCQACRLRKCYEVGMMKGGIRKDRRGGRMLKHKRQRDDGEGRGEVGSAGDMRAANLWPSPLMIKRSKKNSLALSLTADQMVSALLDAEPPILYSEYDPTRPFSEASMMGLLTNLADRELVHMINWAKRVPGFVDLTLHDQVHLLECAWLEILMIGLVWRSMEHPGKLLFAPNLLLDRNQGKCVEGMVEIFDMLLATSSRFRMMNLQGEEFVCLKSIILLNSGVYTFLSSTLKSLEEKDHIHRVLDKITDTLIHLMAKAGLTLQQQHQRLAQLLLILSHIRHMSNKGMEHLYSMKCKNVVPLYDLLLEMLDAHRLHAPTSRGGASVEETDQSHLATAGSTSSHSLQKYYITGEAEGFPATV
# [10] = target: T5, Alkaline phosphatase, tissue-nonspecific isozyme (Homo sapiens, UniProt P05186)
# T5 sequence (P05186 whole entry): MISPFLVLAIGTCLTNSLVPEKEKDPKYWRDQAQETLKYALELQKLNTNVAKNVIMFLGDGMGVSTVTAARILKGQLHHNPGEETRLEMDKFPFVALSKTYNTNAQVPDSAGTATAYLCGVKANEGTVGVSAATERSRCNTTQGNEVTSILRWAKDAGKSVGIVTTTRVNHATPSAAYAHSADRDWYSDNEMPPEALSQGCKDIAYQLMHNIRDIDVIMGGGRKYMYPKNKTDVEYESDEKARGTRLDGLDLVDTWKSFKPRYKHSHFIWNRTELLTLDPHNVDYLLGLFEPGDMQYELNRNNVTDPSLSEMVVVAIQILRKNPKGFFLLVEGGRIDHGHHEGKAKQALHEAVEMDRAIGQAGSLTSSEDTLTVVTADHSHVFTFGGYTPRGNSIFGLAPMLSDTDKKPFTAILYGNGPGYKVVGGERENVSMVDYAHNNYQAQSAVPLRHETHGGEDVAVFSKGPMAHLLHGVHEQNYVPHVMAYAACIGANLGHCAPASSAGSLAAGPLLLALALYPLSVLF
# [11] = test system: HT-1080; assay: cytotoxicity in HT1080 fibrosarcoma cells, cell-based, fluorescence readout (AID 620); assay type: functional; settings: Homo sapiens
# [12] = target: Luciferin 4-monooxygenase (Photinus pyralis, UniProt P08659); assay: Counter Screen for Luciferase-based Assay Positives. [Related pubchem assays: 620, 618, 411 ]
# [13] = target: T6, Eukaryotic translation initiation factor 2-alpha kinase 3 (Homo sapiens, UniProt Q9NZJ5); assay: Dose response cell-based high-throughput screening assay to measure PERK inhibition. [Related pubchem assays: 1416 ]; assay type: functional
# [14] = target: T6, Eukaryotic translation initiation factor 2-alpha kinase 3; assay: Counterscreen assay for PERK inhibitors: Dose response cell-based high throughput screening assay to measure inhibition of PERK at 6 hours. [Related pubchem assays: 1522, 1416 ]; assay type: functional
# [15] = target: T3, Bcl-2-like protein 10; assay: Biochemical TR3 FP assay of Bcl-B inhibitor potency, EC50 (AID 1243); assay type: functional
# [16] = target: Neurotensin receptor type 1 (Homo sapiens, UniProt P30989); assay type: functional;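 note: Image-based confirmatory dose-response assay measuring agonist activity at NTR1; NTR1-expressing U2OS osteosarcoma cells imaged for beta-arrestin GFP spot formation; agonist potency where compounds increase beta-arrestin recruitment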
# Sequence of Neurotensin receptor type 1 (P30989 whole entry): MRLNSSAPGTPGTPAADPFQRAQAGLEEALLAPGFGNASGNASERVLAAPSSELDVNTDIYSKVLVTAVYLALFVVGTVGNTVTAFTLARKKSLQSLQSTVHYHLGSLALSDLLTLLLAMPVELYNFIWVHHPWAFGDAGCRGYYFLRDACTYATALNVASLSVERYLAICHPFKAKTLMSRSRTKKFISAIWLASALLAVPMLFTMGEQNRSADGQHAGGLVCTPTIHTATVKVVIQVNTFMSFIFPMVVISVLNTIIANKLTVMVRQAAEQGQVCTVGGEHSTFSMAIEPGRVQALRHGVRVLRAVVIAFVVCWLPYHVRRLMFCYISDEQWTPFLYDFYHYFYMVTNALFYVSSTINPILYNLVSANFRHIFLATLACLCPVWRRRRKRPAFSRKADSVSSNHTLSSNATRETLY
# T1 sequence (P0DMV8 whole entry): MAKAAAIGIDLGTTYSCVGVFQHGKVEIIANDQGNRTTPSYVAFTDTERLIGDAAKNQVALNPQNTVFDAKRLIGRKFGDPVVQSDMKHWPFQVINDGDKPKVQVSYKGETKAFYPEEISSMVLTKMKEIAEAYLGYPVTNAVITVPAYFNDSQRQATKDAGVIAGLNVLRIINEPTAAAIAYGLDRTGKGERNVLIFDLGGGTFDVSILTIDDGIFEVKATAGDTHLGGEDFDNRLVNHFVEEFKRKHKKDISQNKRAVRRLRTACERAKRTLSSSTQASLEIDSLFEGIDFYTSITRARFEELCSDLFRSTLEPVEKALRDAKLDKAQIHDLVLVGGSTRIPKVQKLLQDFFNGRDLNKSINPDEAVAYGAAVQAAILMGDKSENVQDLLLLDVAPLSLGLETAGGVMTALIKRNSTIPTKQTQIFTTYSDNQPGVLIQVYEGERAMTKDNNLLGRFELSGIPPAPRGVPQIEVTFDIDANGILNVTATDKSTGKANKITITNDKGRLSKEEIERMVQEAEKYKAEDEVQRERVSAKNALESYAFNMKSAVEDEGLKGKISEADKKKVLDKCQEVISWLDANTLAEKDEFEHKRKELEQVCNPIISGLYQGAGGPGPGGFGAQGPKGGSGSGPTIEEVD
# T6 sequence (Q9NZJ5 whole entry): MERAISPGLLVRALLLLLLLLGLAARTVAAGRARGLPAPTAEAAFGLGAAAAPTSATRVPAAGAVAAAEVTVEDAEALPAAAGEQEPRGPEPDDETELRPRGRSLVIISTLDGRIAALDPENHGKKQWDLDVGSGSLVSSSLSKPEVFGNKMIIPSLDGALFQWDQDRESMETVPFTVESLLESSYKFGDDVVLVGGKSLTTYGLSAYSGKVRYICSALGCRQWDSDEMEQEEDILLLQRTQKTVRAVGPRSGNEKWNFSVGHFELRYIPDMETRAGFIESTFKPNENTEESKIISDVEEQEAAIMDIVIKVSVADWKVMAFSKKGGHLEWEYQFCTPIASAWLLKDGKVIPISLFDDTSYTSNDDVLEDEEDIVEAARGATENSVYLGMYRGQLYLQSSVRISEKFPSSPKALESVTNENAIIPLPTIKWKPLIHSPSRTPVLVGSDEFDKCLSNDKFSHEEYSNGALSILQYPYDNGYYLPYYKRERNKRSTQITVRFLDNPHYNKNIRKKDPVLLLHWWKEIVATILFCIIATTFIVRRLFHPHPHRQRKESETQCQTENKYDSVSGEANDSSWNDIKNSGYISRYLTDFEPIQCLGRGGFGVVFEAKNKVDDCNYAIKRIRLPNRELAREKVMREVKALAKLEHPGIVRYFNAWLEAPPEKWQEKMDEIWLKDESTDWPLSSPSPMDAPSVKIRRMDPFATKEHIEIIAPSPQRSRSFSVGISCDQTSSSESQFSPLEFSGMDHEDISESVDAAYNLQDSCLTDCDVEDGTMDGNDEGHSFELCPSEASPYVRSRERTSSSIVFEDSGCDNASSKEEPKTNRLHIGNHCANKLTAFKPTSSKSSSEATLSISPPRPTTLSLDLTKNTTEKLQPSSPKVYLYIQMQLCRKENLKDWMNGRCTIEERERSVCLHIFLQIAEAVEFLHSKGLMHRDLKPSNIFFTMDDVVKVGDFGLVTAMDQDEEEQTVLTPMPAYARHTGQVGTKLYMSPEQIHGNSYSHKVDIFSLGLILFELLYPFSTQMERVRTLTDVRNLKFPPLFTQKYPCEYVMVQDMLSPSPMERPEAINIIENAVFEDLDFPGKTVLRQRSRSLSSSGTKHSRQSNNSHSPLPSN
# Sequence of Mothers against decapentaplegic homolog 3 (P84022 whole entry): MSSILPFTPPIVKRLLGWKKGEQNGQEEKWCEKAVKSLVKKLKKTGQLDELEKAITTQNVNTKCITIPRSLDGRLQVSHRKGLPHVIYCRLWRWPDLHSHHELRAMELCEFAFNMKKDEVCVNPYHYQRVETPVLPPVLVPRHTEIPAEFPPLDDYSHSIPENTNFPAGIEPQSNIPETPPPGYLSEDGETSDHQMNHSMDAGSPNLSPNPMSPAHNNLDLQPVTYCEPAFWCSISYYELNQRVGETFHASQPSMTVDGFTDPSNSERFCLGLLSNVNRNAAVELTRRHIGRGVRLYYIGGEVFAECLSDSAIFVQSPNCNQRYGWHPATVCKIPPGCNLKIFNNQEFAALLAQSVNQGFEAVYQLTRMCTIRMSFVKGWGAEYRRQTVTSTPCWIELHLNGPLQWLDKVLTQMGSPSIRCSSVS
# Sequence of Estrogen receptor beta (Q92731 whole entry): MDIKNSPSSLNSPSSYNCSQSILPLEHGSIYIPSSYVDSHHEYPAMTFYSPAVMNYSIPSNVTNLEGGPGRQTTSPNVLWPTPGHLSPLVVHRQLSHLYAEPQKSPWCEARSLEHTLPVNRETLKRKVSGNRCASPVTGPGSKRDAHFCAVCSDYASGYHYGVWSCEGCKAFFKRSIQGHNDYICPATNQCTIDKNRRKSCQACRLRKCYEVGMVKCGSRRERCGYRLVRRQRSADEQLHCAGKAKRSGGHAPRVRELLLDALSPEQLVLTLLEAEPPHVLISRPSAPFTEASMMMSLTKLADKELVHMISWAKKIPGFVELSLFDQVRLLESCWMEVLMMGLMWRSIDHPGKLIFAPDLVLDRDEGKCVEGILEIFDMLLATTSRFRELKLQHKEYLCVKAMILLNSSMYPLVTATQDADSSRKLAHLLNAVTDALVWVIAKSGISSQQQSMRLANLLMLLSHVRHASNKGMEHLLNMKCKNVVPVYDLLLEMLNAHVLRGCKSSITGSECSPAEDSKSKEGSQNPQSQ
# Sequence of Luciferin 4-monooxygenase (P08659 whole entry): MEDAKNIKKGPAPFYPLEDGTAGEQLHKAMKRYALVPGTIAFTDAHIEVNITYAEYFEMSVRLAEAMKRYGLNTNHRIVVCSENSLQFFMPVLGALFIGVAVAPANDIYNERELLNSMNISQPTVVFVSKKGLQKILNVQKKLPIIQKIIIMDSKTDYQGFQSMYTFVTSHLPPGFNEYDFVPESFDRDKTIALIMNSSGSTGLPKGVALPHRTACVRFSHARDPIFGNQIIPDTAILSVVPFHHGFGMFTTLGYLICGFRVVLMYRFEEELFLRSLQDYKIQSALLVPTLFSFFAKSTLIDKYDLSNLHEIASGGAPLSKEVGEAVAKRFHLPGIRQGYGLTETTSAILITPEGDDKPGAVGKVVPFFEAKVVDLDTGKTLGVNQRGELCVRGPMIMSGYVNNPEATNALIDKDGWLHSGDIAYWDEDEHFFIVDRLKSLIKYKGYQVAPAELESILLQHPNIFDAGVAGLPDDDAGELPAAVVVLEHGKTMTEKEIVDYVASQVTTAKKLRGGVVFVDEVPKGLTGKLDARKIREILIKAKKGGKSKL
# Sequence of Acyl-homoserine lactone acylase PvdQ (Q9I194 24-193 limits assumed): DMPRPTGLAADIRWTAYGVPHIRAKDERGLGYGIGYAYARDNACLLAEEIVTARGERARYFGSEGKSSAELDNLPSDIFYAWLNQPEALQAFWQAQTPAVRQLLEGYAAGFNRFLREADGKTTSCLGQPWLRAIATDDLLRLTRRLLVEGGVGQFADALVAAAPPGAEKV
# Sequence of Acyl-homoserine lactone acylase PvdQ (Q9I194 217-762 limits assumed): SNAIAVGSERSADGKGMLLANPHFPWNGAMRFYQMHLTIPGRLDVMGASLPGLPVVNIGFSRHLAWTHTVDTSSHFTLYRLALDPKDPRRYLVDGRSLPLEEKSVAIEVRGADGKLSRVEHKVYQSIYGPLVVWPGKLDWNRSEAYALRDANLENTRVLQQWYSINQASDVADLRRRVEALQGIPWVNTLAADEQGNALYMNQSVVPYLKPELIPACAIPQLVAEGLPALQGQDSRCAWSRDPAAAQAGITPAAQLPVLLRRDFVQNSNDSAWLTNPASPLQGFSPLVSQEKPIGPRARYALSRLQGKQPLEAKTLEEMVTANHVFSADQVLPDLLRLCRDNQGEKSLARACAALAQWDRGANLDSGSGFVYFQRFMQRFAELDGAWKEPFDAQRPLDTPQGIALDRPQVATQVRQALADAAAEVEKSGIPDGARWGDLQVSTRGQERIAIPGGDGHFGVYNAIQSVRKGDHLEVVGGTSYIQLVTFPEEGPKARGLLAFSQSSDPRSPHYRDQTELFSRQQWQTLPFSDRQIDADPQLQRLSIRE
smiles,measurement,setting,value
CC(C)CCNC(=O)c1cccc(Cl)c1,AC50,[1],6.33 µM (active)
COc1cccc(C(=O)NC2CC3CCCC(C2)N3CC(=O)Nc2ccccc2)c1 (stereo unspecified),IC50,[2],11.4 µM (active)
same,IC50,[3],> 100 µM (not active)
same,IC50,[4],45.4 µM (active)
same,IC50,[5],> 100 µM (not active)
same,IC50,[6],9.46 µM (active)
same,IC50,[7],44.6 µM (not active)
same,IC50,[8],73.6 µM (inactive)
O=C(CCCn1c(=S)[nH]c2ccccc2c1=O)N1CCN(c2ccccc2O)CC1,IC50,[9],0.07 µM (not active)
Cc1ccc(N(C(=O)c2ccn[nH]2)C(C(=O)NC2CCCC2)c2cccs2)cc1 (stereo unspecified),EC50,[10],> 100 µM (not active)
CCOC(=O)CNC(=O)CSc1ncnc2c1cnn2-c1ccc(C)cc1,EC50,[11],> 50 µM (not active)
same,EC50,[12],< 0.2 µM (active)
CC(C)C(=O)Nc1ccc2c(c1)nc(CCN1CCN(C)CC1)n2C,EC50,[13],> 55.7 µM (not active)
same,EC50,[14],> 55.7 µM (not active)
OC1=c2ccccc2=C(O)C12N=Nc1nnc(S)n1N2,EC50,[15],23.8 µM (active)
CC(C)Cn1c(N)c(C(=O)CSc2cc(Cl)ccc2Cl)c(=O)n(C)c1=O,EC50,[16],16.5 µM (active)
